Measured values as given in EP1923473B1, “Bis-diglycolamides (BISDGA) as new extractants for lanthanides [Ln(III)] and actinides [An(III)] from aqueous high-level wastes” (Universidad Autónoma de Madrid, priority 2006, dated 2008).

Assay: Loading capacity (limiting organic concentration)
Format: physicochemical
Settings: 0.2 mol/L in TPH/1-octanol (95:5)%vol; 3 mol/L nitric acid
Description: The organic solutions were prepared and equilibrated with 3 mol/L nitric acid as detailed in the previously described sections A) and B.
Aqueous solutions of 3 mol/L nitric acid, spiked with 600 Bq of ^152Eu and 600 Bq of ^241Am, containing different amounts of stable Eu(III) (0.004 mol/L, 0.008 mol/L, 0.016 mol/L, 0.032 mol/L, 0.064 mol/L and 0.128 mol/L), obtained dissolving the corresponding amount of Eu (NO3)3·6H2O salt in 3 mol/L nitric acid, were prepared.
600 µL of equilibrated organic phase were contacted with 600 µL of aqueous phase of the corresponding concentration of Eu(III). It was stirred vigorously by means of an oscillating shaker for 15 minutes. The phases were separated by centrifugation at 5000 rpm and 400 µL of each of the phases were taken for the determination of the concentration of ^152Eu and ^241Am, as described previously in section C).
The loading capacity was determined according to the limiting organic concentration or LOC, which is the highest concentration of metal admitted by the organic phase before the third phase appears, as a result of the organic phase separating into two phases: a light or less heavy phase formed mainly by the organic solvent and a heavy phase formed by the complex formed by the extractant and the metal. […]

Substance	LOCEu
2-Dioctylcarbamoylmethoxy-N-[3-[3-(2-dioctylcarbamoyl-methoxyacetylamino)propoxy]propyl]acetamide [Compound 18]	~ 0.06 mol/L
2-Dioctylcarbamoylmethoxy-N-[3-[(2-dioctylcarbamoyl-methoxy-acetylamino)methyl]benzyl]acetamide [Compound 4]	~ 0.03 mol/L
